From ChEMBL document CHEMBL5380831, “Azolylpyrimidinediols as Novel Structural Scaffolds of DNA-Groove Binders against Intractable Acinetobacter baumannii” (J Med Chem, 2023)
Values after ≈ are worked out from the molar mass of the structure shown.

Key:
Format in all cases: functional
[1] = test system: Staphylococcus aureus; assay: Antibacterial activity against Staphylococcus aureus assessed as bacterial growth inhibition incubated for 24 hrs by broth microdilution method
[2] = test system: Staphylococcus aureus; assay: Antibacterial activity against methicillin-resistant Staphylococcus aureus assessed as bacterial growth inhibition incubated for 24 hrs by broth microdilution method
[3] = test system: Enterococcus faecalis; assay: Antibacterial activity against Enterococcus faecalis assessed as bacterial growth inhibition incubated for 24 hrs by broth microdilution method
[4] = test system: Staphylococcus aureus; assay: Antibacterial activity against Staphylococcus aureus ATCC 25923 assessed as bacterial growth inhibition incubated for 24 hrs by broth microdilution method
[5] = test system: Staphylococcus aureus; assay: Antibacterial activity against Staphylococcus aureus ATCC 29213 assessed as bacterial growth inhibition incubated for 24 hrs by broth microdilution method
[6] = test system: Klebsiella pneumoniae; assay: Antibacterial activity against Klebsiella pneumoniae assessed as bacterial growth inhibition incubated for 24 hrs by broth microdilution method
[7] = test system: Escherichia coli; assay: Antibacterial activity against Escherichia coli assessed as bacterial growth inhibition incubated for 24 hrs by broth microdilution method
[8] = test system: Escherichia coli; assay: Antibacterial activity against Escherichia coli ATCC 25922 assessed as bacterial growth inhibition incubated for 24 hrs by broth microdilution method
[9] = test system: Pseudomonas aeruginosa; assay: Antibacterial activity against Pseudomonas aeruginosa assessed as bacterial growth inhibition incubated for 24 hrs by broth microdilution method
[10] = test system: Pseudomonas aeruginosa; assay: Antibacterial activity against Pseudomonas aeruginosa ATCC 27853 assessed as bacterial growth inhibition incubated for 24 hrs by broth microdilution method
[11] = test system: Acinetobacter baumannii; assay: Antibacterial activity against Acinetobacter baumannii assessed as bacterial growth inhibition incubated for 24 hrs by broth microdilution method

Row | SMILES | MIC [1] [µM] | MIC [2] [µM] | MIC [3] [µM] | MIC [4] [µM] | MIC [5] [µM] | MIC [6] [µM] | MIC [7] [µM] | MIC [8] [µM] | MIC [9] [µM] | MIC [10] [µM] | MIC [11] [µM]
1 | Cc1cn(-c2nccc(N(CCO)CCO)n2)c(C)n1 | 924 (≈ 256 µg/mL) | 924 (≈ 256 µg/mL) | 58 (≈ 16.1 µg/mL) | 924 (≈ 256 µg/mL) | 924 (≈ 256 µg/mL) | 924 (≈ 256 µg/mL) | 924 (≈ 256 µg/mL) | 924 (≈ 256 µg/mL) | 462 (≈ 128 µg/mL) | 924 (≈ 256 µg/mL) | 924 (≈ 256 µg/mL)
2 | O=c1ccc2c(CN3CCN(c4nccc(-n5cncn5)n4)CC3)cc(O)cc2o1 | 316 (≈ 128 µg/mL) | 316 (≈ 128 µg/mL) | 316 (≈ 128 µg/mL) | 316 (≈ 128 µg/mL) | 632 (≈ 256 µg/mL) | 632 (≈ 256 µg/mL) | 632 (≈ 256 µg/mL) | 633 (≈ 257 µg/mL) | 316 (≈ 128 µg/mL) | 632 (≈ 256 µg/mL) | 158 (≈ 64.1 µg/mL)
3 | CC(=O)Nc1ccc(S(=O)(=O)N2CCN(c3nccc(-n4cncn4)n3)CC2)cc1 | 299 (≈ 128 µg/mL) | 598 (≈ 256 µg/mL) | 598 (≈ 256 µg/mL) | 299 (≈ 128 µg/mL) | 598 (≈ 256 µg/mL) | 598 (≈ 256 µg/mL) | 598 (≈ 256 µg/mL) | 598 (≈ 256 µg/mL) | 598 (≈ 256 µg/mL) | 598 (≈ 256 µg/mL) | 598 (≈ 256 µg/mL)
4 | CC(=O)N1CCN(c2nccc(-n3cncn3)n2)CC1 | 937 (≈ 256 µg/mL) | 469 (≈ 128 µg/mL) | 937 (≈ 256 µg/mL) | 937 (≈ 256 µg/mL) | 937 (≈ 256 µg/mL) | 4 (≈ 1.09 µg/mL) | 937 (≈ 256 µg/mL) | 4 (≈ 1.09 µg/mL) | 469 (≈ 128 µg/mL) | 937 (≈ 256 µg/mL) | 937 (≈ 256 µg/mL)
5 | CCN(CC)c1nccc(-n2cncn2)n1 | 1170 (≈ 256 µg/mL) | 1170 (≈ 256 µg/mL) | 587 (≈ 128 µg/mL) | 587 (≈ 128 µg/mL) | 587 (≈ 128 µg/mL) | 1170 (≈ 256 µg/mL) | 587 (≈ 128 µg/mL) | 587 (≈ 128 µg/mL) | 1170 (≈ 256 µg/mL) | 587 (≈ 128 µg/mL) | 1170 (≈ 256 µg/mL)
6 | O=C(c1ccccc1)N1CCN(c2nccc(-n3cncn3)n2)CC1 | 764 (≈ 256 µg/mL) | 764 (≈ 256 µg/mL) | 764 (≈ 256 µg/mL) | 764 (≈ 256 µg/mL) | 764 (≈ 256 µg/mL) | 6 (≈ 2.01 µg/mL) | 764 (≈ 256 µg/mL) | 6 (≈ 2.01 µg/mL) | 382 (≈ 128 µg/mL) | 764 (≈ 256 µg/mL) | 764 (≈ 256 µg/mL)
7 | CC(C)N(c1nccc(-n2cncn2)n1)C(C)C | 1040 (≈ 256 µg/mL) | 520 (≈ 128 µg/mL) | 1040 (≈ 256 µg/mL) | 520 (≈ 128 µg/mL) | 1040 (≈ 256 µg/mL) | 1040 (≈ 256 µg/mL) | 1040 (≈ 256 µg/mL) | 1040 (≈ 256 µg/mL) | 520 (≈ 128 µg/mL) | 520 (≈ 128 µg/mL) | 1040 (≈ 256 µg/mL)
8 | Cc1ncc([N+](=O)[O-])n1-c1ccnc(N(CCO)CCO)n1 | 415 (≈ 128 µg/mL) | 831 (≈ 256 µg/mL) | 406 (≈ 125 µg/mL) | 831 (≈ 256 µg/mL) |  | 415 (≈ 128 µg/mL) | 415 (≈ 128 µg/mL) | 831 (≈ 256 µg/mL) | 415 (≈ 128 µg/mL) | 1660 (≈ 512 µg/mL) | 415 (≈ 128 µg/mL)
9 | Cc1cn(-c2ccnc(N(CCO)CCO)n2)c(C)n1 | 924 (≈ 256 µg/mL) | 924 (≈ 256 µg/mL) | 924 (≈ 256 µg/mL) | 924 (≈ 256 µg/mL) | 924 (≈ 256 µg/mL) | 934 (≈ 259 µg/mL) | 924 (≈ 256 µg/mL) | 924 (≈ 256 µg/mL) | 924 (≈ 256 µg/mL) | 924 (≈ 256 µg/mL) | 462 (≈ 128 µg/mL)
10 | CN(C)c1nccc(-n2cncn2)n1 | 1350 (≈ 256 µg/mL) | 1350 (≈ 256 µg/mL) | 1350 (≈ 256 µg/mL) | 1350 (≈ 256 µg/mL) | 1350 (≈ 256 µg/mL) | 1350 (≈ 256 µg/mL) | 1350 (≈ 256 µg/mL) | 673 (≈ 128 µg/mL) | 337 (≈ 64.1 µg/mL) | 1350 (≈ 256 µg/mL) | 1350 (≈ 256 µg/mL)
11 | O=C(C(Cl)Cl)N1CCN(c2nccc(-n3cncn3)n2)CC1 | 705 (≈ 241 µg/mL) | 705 (≈ 241 µg/mL) | 705 (≈ 241 µg/mL) | 705 (≈ 241 µg/mL) | 705 (≈ 241 µg/mL) | 353 (≈ 121 µg/mL) | 705 (≈ 241 µg/mL) | 353 (≈ 121 µg/mL) | 88 (≈ 30.1 µg/mL) | 705 (≈ 241 µg/mL) | 705 (≈ 241 µg/mL)
12 | OCCN(CCO)c1nccc(-n2cnc3ccccc32)n1 | 214 (≈ 64.1 µg/mL) | 856 (≈ 256 µg/mL) | 107 (≈ 32 µg/mL) | 107 (≈ 32 µg/mL) | 856 (≈ 256 µg/mL) | 428 (≈ 128 µg/mL) | 214 (≈ 64.1 µg/mL) | 856 (≈ 256 µg/mL) | 214 (≈ 64.1 µg/mL) | 107 (≈ 32 µg/mL) | 856 (≈ 256 µg/mL)
13 | Clc1ccc2c3ccccc3n(-c3nccc(-n4cncn4)n3)c2c1 | 740 (≈ 257 µg/mL) | 740 (≈ 257 µg/mL) | 185 (≈ 64.2 µg/mL) | 740 (≈ 257 µg/mL) | 740 (≈ 257 µg/mL) | 740 (≈ 257 µg/mL) | 740 (≈ 257 µg/mL) | 740 (≈ 257 µg/mL) | 3 (≈ 1.04 µg/mL) | 740 (≈ 257 µg/mL) | 740 (≈ 257 µg/mL)
14 | O=[N+]([O-])c1cn(-c2ccnc(N(CCO)CCO)n2)cn1 | 435 (≈ 128 µg/mL) | 870 (≈ 256 µg/mL) | 870 (≈ 256 µg/mL) | 435 (≈ 128 µg/mL) | 870 (≈ 256 µg/mL) | 870 (≈ 256 µg/mL) | 435 (≈ 128 µg/mL) | 870 (≈ 256 µg/mL) | 435 (≈ 128 µg/mL) | 435 (≈ 128 µg/mL) | 
15 | OCCN(CCO)c1nccc(-n2cnnn2)n1 | 1020 (≈ 256 µg/mL) | 2040 (≈ 512 µg/mL) | 1020 (≈ 256 µg/mL) | 1020 (≈ 256 µg/mL) | 1020 (≈ 256 µg/mL) | 1020 (≈ 256 µg/mL) | 1020 (≈ 256 µg/mL) | 1020 (≈ 256 µg/mL) |  | 1020 (≈ 256 µg/mL) | 510 (≈ 128 µg/mL)
